Active and inactive are the calls of the source. No cut-off for these calls is given here.
Experiments:
SK-MEL-28 [1] = experiment: Induction of apoptosis in human SK-MEL-28 cells assessed as early apoptotic cells at 5 uM incubated for 24 hrs by Annexin V-FITC/PI dual staining based flow cytometry analysis (reference value: 0.0%); assay type: functional
SK-MEL-28 [2] = experiment: Induction of mitochondrial membrane potential changes in human SK-MEL-28 cells assessed as J-aggregate level by measuring red fluorescence intensity at 1 uM incubated for 48 hrs by JC-1 staining based analysis (reference value: 98.9%); assay type: functional
SK-MEL-28 [3] = experiment: Induction of apoptosis in human SK-MEL-28 cells assessed as necrotic cells at 2.5 uM incubated for 24 hrs by Annexin V-FITC/PI staining based flow cytometry analysis (reference value: 0.1%); assay type: functional
SK-MEL-28 [4] = experiment: Induction of morphological changes in human SK-MEL-28 cells assessed as cell shrinkage by ethidium bromide/acridine orange staining based analysis; assay type: functional; conditions: dose 1-5 µM
SK-MEL-28 [5] = experiment: Induction of cell cycle arrest in human SK-MEL-28 cells assessed as accumulation of cells at S phase at 5 uM measured after 48 hrs by PI staining based flow cytometry (reference value: 16.5%); assay type: functional
B16-F10 = experiment: Anticancer activity against mouse B16-F10 cells assessed as inhibition in cell growth measured after 72 hrs by MTT assay; assay type: functional, cell-based; conditions: B16-F10, 72 h
SK-MEL-28 [6] = experiment: Induction of apoptosis in human SK-MEL-28 cells assessed as live cells at 2.5 uM incubated for 24 hrs by Annexin V-FITC/PI dual staining based flow cytometry analysis (reference value: 99.9%); assay type: functional
SK-MEL-28 [7] = experiment: Induction of apoptosis in human SK-MEL-28 cells assessed as late apoptotic cells at 1 uM incubated for 24 hrs by Annexin V-FITC/PI dual staining based flow cytometry analysis (reference value: 0.1%); assay type: functional
SK-MEL-28 [8] = experiment: Induction of cell cycle arrest in human SK-MEL-28 cells assessed as accumulation of cells at G2 phase at 5 uM measured after 48 hrs by PI staining based flow cytometry (reference value: 9.17%); assay type: functional
SK-MEL-28 [9] = experiment: Induction of cell cycle arrest in human SK-MEL-28 cells assessed as accumulation of cells at S phase at 2.5 uM measured after 48 hrs by PI staining based flow cytometry (reference value: 16.5%); assay type: functional
SK-MEL-28 [10] = experiment: Induction of mitochondrial membrane potential changes in human SK-MEL-28 cells assessed as J-aggregate level by measuring red fluorescence intensity at 5 uM incubated for 48 hrs by JC-1 staining based analysis (reference value: 98.9%); assay type: functional
SK-MEL-28 [11] = experiment: Induction of morphological changes in human SK-MEL-28 cells assessed as nuclear shrinkage at 1 to 5 uM measured after 48 hrs DAPI staining based analysis; assay type: functional, cell-based; conditions: dose 1-5 µM
SK-MEL-28 [12] = experiment: Induction of apoptosis in human SK-MEL-28 cells assessed as necrotic cells at 1 uM incubated for 24 hrs by Annexin V-FITC/PI staining based flow cytometry analysis (reference value: 0.1%); assay type: functional
SK-MEL-28 [13] = experiment: Induction of morphological changes in human SK-MEL-28 cells assessed as membrane blebbing by ethidium bromide/acridine orange staining based analysis; assay type: functional, cell-based; conditions: dose 1-5 µM
SK-MEL-28 [14] = experiment: Inhibition of colony formation in human SK-MEL-28 cells incubated for 48 hrs by crystal violet staining based colony formation assay; assay type: functional, cell-based; conditions: dose 1-5 µM
Tubulin (Homo sapiens) [15] = target: T1, Tubulin (Homo sapiens) (UniProt P68371+Q9H4B7+P0DPH7+P68366+Q13509+Q71U36+P04350+Q3ZCM7+P07437+P68363+Q9BQE3+Q6PEY2+Q13885+Q9BVA1+Q9BUF5); experiment: Inhibition of tubulin polymerization (unknown origin) at 0.75 uM incubated for 1 hr relative to control; assay type: protein-complex assay
Tubulin (Homo sapiens) [16] = target: T1, Tubulin (Homo sapiens); experiment: Inhibition of tubulin polymerization (unknown origin) at 1.5 uM incubated for 1 hr relative to control; assay type: protein-complex assay
SK-MEL-28 [17] = experiment: Induction of apoptosis in human SK-MEL-28 cells assessed as late apoptotic cells at 2.5 uM incubated for 24 hrs by Annexin V-FITC/PI dual staining based flow cytometry analysis (reference value: 0.1%); assay type: functional
SK-MEL-28 [18] = experiment: Induction of morphological changes in human SK-MEL-28 cells assessed as appearance of nuclei at 1 to 5 uM measured after 48 hrs DAPI staining based analysis; assay type: functional, cell-based; conditions: dose 1-5 µM
SK-MEL-28 [19] = experiment: Induction of apoptosis in human SK-MEL-28 cells assessed as necrotic cells at 5 uM incubated for 24 hrs by Annexin V-FITC/PI staining based flow cytometry analysis (reference value: 0.1%); assay type: functional
SK-MEL-28 [20] = experiment: Induction of apoptosis in human SK-MEL-28 cells assessed as live cells at 1 uM incubated for 24 hrs by Annexin V-FITC/PI dual staining based flow cytometry analysis (reference value: 99.9%); assay type: functional
[21] = Selectivity index, ratio of IC50 for NRK-52E cells to ratio of IC50 for human A549 cells; assay type: toxicity; conditions: rat (NRK-52E), NRK-52E cells versus A549 cells, read-out: Selectivity Index
Tubulin (Homo sapiens) [22] = target: T1, Tubulin (Homo sapiens); experiment: Inhibition of tubulin polymerization (unknown origin) at 6 uM incubated for 1 hr relative to control; assay type: protein-complex assay
HCT-116 = experiment: Anticancer activity against human HCT-116 cells assessed as inhibition in cell growth measured after 72 hrs by MTT assay; assay type: functional, cell-based; conditions: HCT-116, 72 h
SK-MEL-28 [23] = experiment: Induction of cell cycle arrest in human SK-MEL-28 cells assessed as accumulation of cells at G0-G1 phase at 1 uM measured after 48 hrs by PI staining based flow cytometry (reference value: 74.32%); assay type: functional
[24] = Selectivity index, ratio of IC50 for NRK-52E cells to ratio of IC50 for human SK-MEL-28 cells
Tubulin (Homo sapiens) [25] = target: T1, Tubulin (Homo sapiens); experiment: Inhibition of tubulin polymerization (unknown origin) at 3 uM incubated for 1 hr relative to control; assay type: protein-complex assay
SK-MEL-28 [26] = experiment: Induction of morphological changes in human SK-MEL-28 cells assessed as chromatin condensation at 1 to 5 uM measured after 48 hrs DAPI staining based analysis; assay type: functional, cell-based; conditions: dose 1-5 µM
SK-MEL-28 [27] = experiment: Induction of cell cycle arrest in human SK-MEL-28 cells assessed as accumulation of cells at G0-G1 phase at 5 uM measured after 48 hrs by PI staining based flow cytometry (reference value: 74.32%); assay type: functional
[28] = Selectivity index, ratio of IC50 for NRK-52E cells to ratio of IC50 for human HCT-116 cells; assay type: toxicity; conditions: rat (NRK-52E), NRK-52E cells versus HCT-116 cells, read-out: Selectivity Index
A549 = experiment: Anticancer activity against human A549 cells assessed as inhibition in cell growth measured after 72 hrs by MTT assay; assay type: functional, cell-based; conditions: A549, 72 h
SK-MEL-28 [29] = experiment: Induction of mitochondrial membrane potential depolarization in human SK-MEL-28 cells assessed as J-monomer level by measuring green fluorescence intensity at 5 uM incubated for 48 hrs by JC-1 staining based analysis (reference value: 0.8%); assay type: functional
Tubulin = experiment: (§1) Inhibition of tubulin polymerization (unknown origin) incubated for 1 hr; assay type: protein-complex assay, Homo sapiens
Tubulin (Homo sapiens) [30] = target: T1, Tubulin (Homo sapiens); experiment: as §1; assay type: protein-complex assay; conditions: dose 0.75-12 µM
SK-MEL-28 [31] = experiment: Induction of morphological changes in human SK-MEL-28 cells assessed as bright fragmented nuclei at 1 to 5 uM measured after 48 hrs DAPI staining based analysis; assay type: functional, cell-based; conditions: dose 1-5 µM
SK-MEL-28 [32] = experiment: Induction of mitochondrial membrane potential depolarization in human SK-MEL-28 cells assessed as J-monomer level by measuring green fluorescence intensity at 2.5 uM incubated for 48 hrs by JC-1 staining based analysis (reference value: 0.8%); assay type: functional

- IC50 (B16-F10): 3.1 µM
- inhibition (Tubulin (Homo sapiens) [15]): 20.4%
- inhibition (Tubulin (Homo sapiens) [16]): 35.1%
- inhibition (Tubulin (Homo sapiens) [22]): 52.4%
- IC50 (HCT-116): 6.98 µM
- inhibition (Tubulin (Homo sapiens) [25]): 47.4%
- IC50 (A549): 3.84 µM
- IC50 (Tubulin): 5.65 µM
- inhibition (Tubulin (Homo sapiens) [30]): Dose-Dependent Effect
Compound: COc1cc(-c2nc3cc(F)ccc3[nH]2)ccc1OCC(=O)N1CCc2ccccc21
- Activity (SK-MEL-28 [1]): 1.3%
- Activity (SK-MEL-28 [2]): 97.9%
- Activity (SK-MEL-28 [3]): 1%
- Activity (SK-MEL-28 [4]): Dose-Dependent Effect
- Activity (SK-MEL-28 [5]): 25.66%
- Activity (SK-MEL-28 [6]): 52.5%
- Activity (SK-MEL-28 [7]): 10.7%
- Activity (SK-MEL-28 [8]): 26.05%
- Activity (SK-MEL-28 [9]): 23.71%
- Activity (SK-MEL-28 [10]): 85.1%
- Activity (SK-MEL-28 [11]): Active
- Activity (SK-MEL-28 [12]): 0%
- Activity (SK-MEL-28 [13]): Dose-Dependent Effect
- inhibition (SK-MEL-28 [14]): Dose-Dependent Effect
- Activity (SK-MEL-28 [17]): 20.2%
- Activity (SK-MEL-28 [18]): Active
- Activity (SK-MEL-28 [19]): 13%
- Activity (SK-MEL-28 [20]): 28.5%
- selectivity ratio [21]: 14
- Activity (SK-MEL-28 [23]): 61.71%
- Selectivity Index [24]: 20
- Activity (SK-MEL-28 [26]): Active
- Activity (SK-MEL-28 [27]): 49.28%
- selectivity ratio [28]: 7.7
- Activity (SK-MEL-28 [29]): 14.9%
- Activity (SK-MEL-28 [31]): Active
- Activity (SK-MEL-28 [32]): 3.2%

Source: ChEMBL document CHEMBL5390218, “Benzimidazole derivatives as tubulin polymerization inhibitors: Design, synthesis and in vitro cytotoxicity studies” (Bioorg Med Chem Lett, 2023)
